In US9580390B2, “Indazole compounds as kinase inhibitors and method of treating cancer with same” (University Health Network, priority 2011, dated 2017) one finds IC50 and GI50 data, which are given here for 20 molecules.

In one assay the target is T1, human PLK4 (Homo sapiens, UniProt O00444).
T1 construct: amino terminal GST fusion of residues 1-391 of human PLK4; made in house; host or cells: E. coli
T1 sequence (O00444 1-391): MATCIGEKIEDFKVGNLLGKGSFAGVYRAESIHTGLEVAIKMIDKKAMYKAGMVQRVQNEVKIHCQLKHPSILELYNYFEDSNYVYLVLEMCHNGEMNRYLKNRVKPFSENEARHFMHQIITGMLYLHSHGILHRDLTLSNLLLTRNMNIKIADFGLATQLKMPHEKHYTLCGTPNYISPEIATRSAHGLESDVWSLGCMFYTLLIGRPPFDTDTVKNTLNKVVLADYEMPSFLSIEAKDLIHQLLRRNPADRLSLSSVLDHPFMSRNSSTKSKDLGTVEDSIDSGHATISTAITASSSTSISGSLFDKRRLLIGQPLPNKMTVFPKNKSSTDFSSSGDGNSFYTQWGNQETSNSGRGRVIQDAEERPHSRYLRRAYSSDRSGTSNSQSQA
The assay is described as follows: PLK4 inhibition assay (indirect ELISA). It counts as biochemical. Conditions: 15 μM ATP. The protocol: Active PLK4 was purified from an E. coli expression system as an amino terminal GST fusion of residues 1-391 of human PLK4. The protein was purified from clarified cell extracts after induction at 15° C. overnight using glutathione sepharose, gel permeation chromatography, and ion exchange (Resource Q). The resulting protein was dephosphorylated with lambda phosphatase (NEB cat# P0753), and resolved from the phosphatase using gluthione sepharose. The dephosphorylated GST-PLK4 was stored in aliquots at −80° C. until use.
PLK4 activity was measured using an indirect ELISA detection system. Dephosphorylated GST-PLK4 (4 nM) was incubated in the presence of 15 μM ATP (Sigma cat# A7699), 50 mM HEPES-[…] pH 7.4, 10 mM MgCl2, 0.01% Brij 35 (Sigma cat# 03-3170), in a 96 well microtitre plate pre-coated with MBP (Millipore cat#30-011). The reaction was allowed to proceed for 30 minutes, followed by 5 washes of the plate with Wash Buffer (50 mM TRIS-Cl pH 7.4 and 0.2% Tween 20), and incubation for 30 minutes with a 1:3000 dilution of primary antibody (Cell Signaling cat# 9381). The plate was washed 5 times with Wash Buffer, incubated for 30 minutes in the presence of secondary antibody coupled to horse radish peroxidase (BioRad cat# 1721019, 1:3000 concentration), washed an additional 5 times with Wash Buffer, and incubated in the presence of TMB substrate (Sigma cat# T0440). The colourimetric reaction was allowed to continue for 5 minutes, followed by addition of stop solution (0.5 N sulphuric acid), and quantified by detection at 450 nm with either a monochromatic or filter based plate reader (Molecular Devices M5 or Beckman DTX880, respectively).
Compound inhibition was determined at either a fixed concentration (10 μM) or at a variable inhibitor concentration (typically 50 μM to 0.1 μM in a 10 point dose response titration). Compounds were pre-incubated in the presence of enzyme for 15 minutes prior to addition of ATP and the activity remaining quantified using the above described activity assay. The % Inhibition of a compound was determined using the following formula: % Inhibition=100×(1−(experimental value−background value)/(high activity control−background value)). The IC50 value was determined using a non-linear 4 point logistic curve fit (XLfit4, IDBS) with the formula: (A+(B/(1+((x/C)^D)))), where A=background value, B=range, C=inflection point, D=curve fit parameter.
In general terms: In an ELISA, binding on a coated surface is turned into a signal by an enzyme label.

Assay [1] has as its system colon cancer cells (HCT116). The assay is described as follows: Cancer cell line growth inhibition (SRB assay). It counts as cell-based. Conditions: Homo sapiens, HCT-116; HCT116 colon cancer cells, SRB assay; read-out: Cancer Cell Line GI50 Range HCT116. (Sulforhodamine B stains cellular protein and so reports cell mass.)
Assay [2] has as its system ovarian cancer cells (PA-1). Put plainly: Cancer cell line growth inhibition (SRB assay). Format: cell-based. Conditions: PA-1 ovarian cancer cells, SRB assay; read-out: Cancer Cell Line GI50 Range PA-1.

Regarding `CN1CCC(Oc2ccc(-c3n[nH]c4ccc(NC(=O)C(c5ccsc5)N5CCCC5)cc34)cc2)CC1` (stereo not shown) [Example A7, N-(3-(4-((1-methylpiperidin-4-yl)oxy)phenyl)-1H-indazol-5-yl)-2-(pyrrolidin-1-yl)-2-(thiophen-3-yl)acetamide], the concentration for half-maximal inhibition (IC50) (commonly the concentration that inhibits the measured activity by half) at human PLK4 was below 50 nM.
As to `O=C(NC(c1ccsc1)C1CC1)c1ccc2[nH]nc(-c3ccc(OC4CCN(CCO)CC4)cc3)c2c1` (stereo not shown) [Example A117, N-(cyclopropyl(thiophen-3-yl)methyl)-3-(4-((1-(2-hydroxyethyl)piperidin-4-yl)oxy)phenyl)-1H-indazole-5-carboxamide], the 50% inhibitory concentration (IC50) at human PLK4 is below 50 nM. In addition, the GI50 in assay [1] and in assay [2] was below 100 nM in each case.
As for `COc1ccccc1C(C(=O)Nc1ccc2[nH]nc(-c3ccc(OC4CCN(C)CC4)cc3)c2c1)C1CCCC1` (stereo not shown) [Example A156, 2-cyclopentyl-2-(2-methoxyphenyl)-N-(3-(4-((1-methylpiperidin-4-yl)oxy)phenyl)-1H-indazol-5-yl)acetamide], the IC50 at human PLK4 was below 50 nM. The GI50 (commonly the concentration that inhibits growth by half) in assay [1] was 100 to 500 nM; in assay [2] it was above 500 nM.
With `C[C@@H]1CN(c2ccc(-c3n[nH]c4ccc(NC(=O)C(c5ccsc5)N5CCCC5)cc34)cc2)C[C@H](C)O1` (stereo partly drawn) [Example A50, N-(3-(4-((2S,6R)-2,6-dimethylmorpholino)phenyl)-1H-indazol-5-yl)-2-(pyrrolidin-1-yl)-2-(thiophen-3-yl)acetamide], at human PLK4, the IC50 is below 50 nM. The GI50 in assay [1] was below 100 nM.
For `COCCN1CCC(Oc2ccc(-c3n[nH]c4ccc(C(=O)NC(c5ccsc5)C5CCCC5)cc34)cc2)CC1` (stereo not shown) [Example A155, N-(cyclopentyl(thiophen-3-yl)methyl)-3-(4-((1-(2-methoxyethyl)piperidin-4-yl)oxy)phenyl)-1H-indazole-5-carboxamide], the IC50 at human PLK4 is below 50 nM. For the same molecule, the GI50 in assay [1] and in assay [2] was 100 to 500 nM throughout.
Turning to `COCCN1CCC(Oc2ccc(-c3n[nH]c4ccc(C(=O)N[C@H](C)c5ccccc5F)cc34)cc2)CC1` [Example A129, (R)-N-(1-(2-fluorophenyl)ethyl)-3-(4-((1-(2-methoxyethyl)piperidin-4-yl)oxy)phenyl)-1H-indazole-5-carboxamide], the IC50 at human PLK4 was below 50 nM. Also, the 50% growth inhibitory concentration (GI50) in assay [1] and in assay [2] was 100 to 500 nM in each case.
On to `CN1CCC(Oc2ccc(-c3n[nH]c4ccc(NC(=O)C(c5ccccn5)C5CCCC5)cc34)cc2)CC1` (stereo not shown) [Example A179, 2-cyclopentyl-N-(3-(4-((1-methylpiperidin-4-yl)oxy)phenyl)-1H-indazol-5-yl)-2-(pyridin-2-yl)acetamide], for which the IC50 at human PLK4 is below 50 nM.
`O=C(Nc1ccc2[nH]nc(-c3ccc(OC4CCN(CCF)CC4)cc3)c2c1)C(c1ccsc1)N1CCCC1` (stereo not shown) [Example A102, N-(3-(4-((1-(2-fluoroethyl)piperidin-4-yl)oxy)phenyl)-1H-indazol-5-yl)-2-(pyrrolidin-1-yl)-2-(thiophen-3-yl)acetamide]: the 50% inhibitory concentration (IC50) at human PLK4 was below 50 nM. Further, the GI50 in assay [1] and in assay [2] was below 100 nM each time.
For the molecule `CN1CCC(Oc2ccc(-c3n[nH]c4ccc(NC(=O)C(c5ccsc5)N5CCCC5)cc34)cc2Cl)CC1` (stereo not shown) [Example A57], the IC50 on human PLK4 was below 50 nM. Also, the GI50 in assay [1] fell in the range of 100 to 500 nM.
As for `O=C(Nc1ccc2[nH]nc(-c3ccc(OC4CCNCC4)c(Cl)c3)c2c1)C(c1ccsc1)N1CCCC1` (stereo not shown) [Example A34, N-(3-(3-chloro-4-(piperidin-4-yloxy)phenyl)-1H-indazol-5-yl)-2-(pyrrolidin-1-yl)-2-(thiophen-3-yl)acetamide], at human PLK4, the IC50 is below 50 nM. Further, the concentration for 50% growth inhibition (GI50) in assay [1] was below 100 nM.
Regarding `O=C(Nc1ccc2[nH]nc(-c3ccc(N4CCC(CO)CC4)cc3)c2c1)C(c1ccsc1)N1CCCC1` (stereo not shown) [Example A95, N-(3-(4-(4-(hydroxymethyl)piperidin-1-yl)phenyl)-1H-indazol-5-yl)-2-(pyrrolidin-1-yl)-2-(thiophen-3-yl)acetamide], the IC50 on human PLK4 is below 50 nM. The GI50 in assay [1] and in assay [2] was below 100 nM each time.
For the molecule `CN1CCC(C(NC(=O)c2ccc3[nH]nc(-c4ccc(N5CCOCC5)cc4)c3c2)c2ccccc2)CC1` (stereo not shown) [Example A85, N-((1-methylpiperidin-4-yl)(phenyl)methyl)-3-(4-morpholinophenyl)-1H-indazole-5-carboxamide], at human PLK4, the IC50 was below 50 nM. The GI50 in assay [1] and in assay [2] was below 100 nM in each case.
For the molecule `CC(C)C[C@H](NC(=O)c1ccc2[nH]nc(-c3ccc(N4C5COCC4CC(O)C5)cc3)c2c1)c1ccccn1` (stereo partly drawn) [Example A306, 3-(4-((1R,5S,7R)-7-hydroxy-3-oxa-9-azabicyclo[3.3.1]nonan-9-yl)phenyl)-N-((S)-3-methyl-1-(pyridin-2-yl)butyl)-1H-indazole-5-carboxamide], the IC50 at human PLK4 is below 50 nM.
Turning to `O=C(Nc1ccc2[nH]nc(-c3ccc4c(c3)OCO4)c2c1)C(c1ccsc1)N1CCCC1` (stereo not shown) [Example A14, N-(3-(benzo[d][1,3]dioxol-5-yl)-1H-indazol-5-yl)-2-(pyrrolidin-1-yl)-2-(thiophen-3-yl)acetamide], at human PLK4, the half-inhibitory concentration (IC50) was below 50 nM. Besides, the GI50 in assay [1] was above 500 nM.
For `O=C(Nc1ccc2[nH]nc(-c3ccc4c(c3)OCCO4)c2c1)C(c1ccsc1)N1CCCC1` (stereo not shown) [Example A15, N-(3-(2,3-dihydrobenzo[b][1,4]dioxin-6-yl)-1H-indazol-5-yl)-2-(pyrrolidin-1-yl)-2-(thiophen-3-yl)acetamide] the same measures were below 50 nM and above 500 nM.
For `O=C(Nc1ccc2[nH]nc(-c3ccc(N4CCOCC4)c(F)c3)c2c1)C(c1ccsc1)N1CCCC1` (stereo not shown) [Example A60, N-(3-(3-fluoro-4-morpholinophenyl)-1H-indazol-5-yl)-2-(pyrrolidin-1-yl)-2-(thiophen-3-yl)acetamide] the same measures were below 50 nM and 100 to 500 nM.
For the molecule `O=C(Nc1ccc2[nH]nc(-c3ccc(NC4CCOCC4)cc3)c2c1)C(c1ccsc1)N1CCCC1` (stereo not shown) [Example A71, 2-(pyrrolidin-1-yl)-N-(3-(4-((tetrahydro-2H-pyran-4-yl)amino)phenyl)-1H-indazol-5-yl)-2-(thiophen-3-yl)acetamide], the half-inhibitory concentration (IC50) at human PLK4 was below 50 nM. The concentration for 50% growth inhibition (GI50) in assay [1] was below 100 nM.
For `O=C(Nc1ccc2[nH]nc(-c3ccc(OCCCN4CCOCC4)cc3)c2c1)C(c1ccsc1)N1CCCC1` (stereo not shown) [Example A45, N-(3-(4-(3-morpholinopropoxy)phenyl)-1H-indazol-5-yl)-2-(pyrrolidin-1-yl)-2-(thiophen-3-yl)acetamide] the same measures were below 50 nM and below 100 nM.
Regarding `O=C(NC(c1ccsc1)C1CC1)c1ccc2[nH]nc(-c3ccc(N4CCC(O)CC4)cc3)c2c1` (stereo not shown) [Example A101, N-(cyclopropyl(thiophen-3-yl)methyl)-3-(4-(4-hydroxypiperidin-1-yl)phenyl)-1H-indazole-5-carboxamide], the 50% inhibitory concentration (IC50) at human PLK4 is below 50 nM.
Turning to `CCC(NC(=O)c1ccc2[nH]nc(-c3ccc(OC4CCN(C)CC4)cc3)c2c1)C1CCCCC1` (stereo not shown) [Example A69, N-(1-cyclohexylpropyl)-3-(4-((1-methylpiperidin-4-yl)oxy)phenyl)-1H-indazole-5-carboxamide], the half-inhibitory concentration (IC50) at human PLK4 is below 50 nM. The GI50 in assay [1] is 100 to 500 nM.
